{"source": "patent US9150543B2", "about": "“Substituted indolyl alkyl amino derivatives as inhibitors of histone deacetylase” (Janssen Pharmaceutica N. V., priority 2004, dated 2015)", "key": {"[1]": {"system": "A2780 ovarian carcinoma cells", "assay": "Antiproliferative activity on A2780 cells, MTT (C.2)", "assay_type": "cell-based", "conditions": "Homo sapiens, 96 h, four days of incubation, read-out: Cellular activity pIC50 C.2 (converted)", "protocol": "All compounds tested were dissolved in DMSO and further dilutions were made in culture medium. Final DMSO concentrations never exceeded 0.1% (v/v) in cell proliferation assays. Controls contained A2780 cells and DMSO without compound and blanks contained DMSO but no cells. MTT was dissolved at 5 mg/ml in PBS. A glycine buffer comprised of 0.1 M glycine and 0.1 M NaCl buffered to pH 10.5 with NaOH (1N) was prepared (all reagents were from Merck).\nThe human A2780 ovarian carcinoma cells (a kind gift from Dr. T. C. Hamilton [Fox Chase Cancer Centre, Pennsylvania, USA]) were cultured in RPMI 1640 medium supplemented with 2 mM L-glutamine, 50 μg/ml gentamicin and 10% fetal calf serum. Cells were routinely kept as monolayer cultures at 37° C. in a humidified 5% CO2 atmosphere. Cells were passaged once a week using a trypsin/EDTA solution at a split ratio of 1:40. All media and supplements were obtained from Life Technologies. Cells were free of mycoplasma contamination as determined using the Gen-Probe Mycoplasma Tissue Culture kit (supplier: BioMerieux).\nCells were seeded in NUNC™ 96-well culture plates (Supplier: Life Technologies) and allowed to adhere to the plastic overnight. Densities used for plating were 1500 cells per well in a total volume of 200 μl medium. After cell adhesion to the plates, medium was changed and drugs and/or solvents were added to a final volume of 200 μl. Following four days of incubation, medium was replaced by 200 μl fresh medium and cell density and viability was assessed using an MTT-based assay. To each well, 25 μl MTT solution was added and the cells were further incubated for 2 hours at 37° C. The medium was then carefully aspirated and the blue MTT-formazan product was solubilized by addition of 25 μl glycine buffer followed by 100 μl of DMSO. […] Within an experiment, the results for each experimental condition are the mean of 3 replicate wells. For initial screening purposes, compounds were tested at a single fixed concentration of 10^−6 M. For active compounds, the experiments were repeated to establish full concentration-response curves. For each experiment, controls (containing no drug) and a blank incubation (containing no cells or drugs) were run in parallel. The blank value was subtracted from all control and sample values. For each sample, the mean value for cell growth (in absorbance units) was expressed as a percentage of the mean value for cell growth of the control. […] Herein the effects of test compounds are expressed as pIC50 (the negative log value of the IC50-value)(see Table F-3)."}, "[2]": {"assay": "Solubility/stability at different pH's, chemiluminescent nitrogen detector (C.3.b)", "assay_type": "physicochemical", "conditions": "aqueous buffer; pH = 2.3", "source_text": "In a second method the solubility of a compound at different pH's can be measured with the use of a Chemiluminescent Nitrogen Detector (see example C.3.b).\nThe solubility of a compound, at different pH's, can also be measured with the use of a chemiluminescent nitrogen detector. (see Table F-3)."}, "[3]": {"molecular_target": "histone deacetylase (HeLa nuclear extracts)", "assay": "In vitro assay for inhibition of histone deacetylase with fluorescent-labelled substrate (C.1.b)", "assay_type": "biochemical", "conditions": "Fluor de Lys substrate", "protocol": "The HDAC Fluorescent Activity Assay/Drug Discovery Kit of Biomol (cat.No: AK-500-0001) was used. The HDAC Fluorescent Activity Assay is based on the Fluor de Lys (Fluorogenic Histone deAcetylase Lysyl) substrate and developer combination. The Fluor de Lys substrate, comprises an acetylated lysine side chain. Deacetylation of the substrate sensitizes the substrate so that, in the second step, treatment with the Fluor de Lys developer produces a fluorophore.\nAfter 30 min, 1 volume of the developer was added. […] For each experiment, controls (containing HeLa nuclear extract and buffer), a blank incubation (containing buffer but no HeLa nuclear extract) and samples (containing compound dissolved in DMSO and further diluted in buffer and HeLa nuclear extract) were run in parallel. In first instance, compounds were tested at a concentration of 10^−5M. […] All sample were tested 4 times. In each test the blank value was subtracted from both the control and the sample values. The control sample represented 100% of substrate deactylation. For each sample the fluorescence was expressed as a percentage of the mean value of the controls. […] Herein the effects of test compounds are expressed as pIC50 (the negative log value of the IC50-value) (see Table F-3)."}}, "data": [{"smiles": "Cn1cc(CNCC2CCN(c3ncc(C(=O)NO)cn3)CC2)c2ccccc21", "note": "[Compound 1a]", "values": [{"measurement": "IC50", "setting": "[1]", "result": 0.00631, "unit": "µM"}, {"measurement": "solubility", "setting": "[2]", "result": 1.4, "unit": "mg/mL"}]}, {"smiles": "O=C(NO)c1cnc(N2CCC(CNCc3c[nH]c4ccccc34)CC2)nc1", "note": "[Compound 8]", "values": [{"measurement": "IC50", "setting": "[1]", "result": 0.0794, "unit": "µM"}, {"measurement": "Enzymatic activity pIC50 C.1.b", "setting": "[3]", "result": 8.3}, {"measurement": "solubility", "setting": "[2]", "result": 2.4, "unit": "mg/mL"}]}, {"smiles": "O=C(NO)c1cnc(N2CCC(CNCc3cc4ccccc4s3)CC2)nc1", "note": "[Compound 9]", "values": [{"measurement": "IC50", "setting": "[1]", "result": 0.0794, "unit": "µM"}, {"measurement": "Enzymatic activity pIC50 C.1.b", "setting": "[3]", "result": 8.3}]}, {"smiles": "O=C(NO)c1cnc(N2CCC(CNCc3cc4ccccc4o3)CC2)nc1", "note": "[Compound 10]", "values": [{"measurement": "IC50", "setting": "[1]", "result": 0.0316, "unit": "µM"}, {"measurement": "Enzymatic activity pIC50 C.1.b", "setting": "[3]", "result": 8.1}, {"measurement": "solubility", "setting": "[2]", "result": 3.7, "unit": "mg/mL"}]}, {"smiles": "Cn1c(CNCC2CCN(c3ncc(C(=O)NO)cn3)CC2)cc2ccccc21", "note": "[Compound 11]", "values": [{"measurement": "IC50", "setting": "[1]", "result": 0.0316, "unit": "µM"}, {"measurement": "Enzymatic activity pIC50 C.1.b", "setting": "[3]", "result": 8.2}, {"measurement": "solubility", "setting": "[2]", "result": 2.8, "unit": "mg/mL"}]}, {"smiles": "Cc1ccc2[nH]cc(CNCC3CCN(c4ncc(C(=O)NO)cn4)CC3)c2c1", "note": "[Compound 12]", "values": [{"measurement": "IC50", "setting": "[1]", "result": 0.0794, "unit": "µM"}, {"measurement": "Enzymatic activity pIC50 C.1.b", "setting": "[3]", "result": 8.2}]}, {"smiles": "O=C(NO)c1cnc(N2CCC(CNCc3c[nH]c4ccc(F)cc34)CC2)nc1", "note": "[Compound 13]", "values": [{"measurement": "IC50", "setting": "[1]", "result": 0.0316, "unit": "µM"}, {"measurement": "Enzymatic activity pIC50 C.1.b", "setting": "[3]", "result": 6.0}]}, {"smiles": "Cc1cccc2c(CNCC3CCN(c4ncc(C(=O)NO)cn4)CC3)c[nH]c12", "note": "[Compound 14]", "values": [{"measurement": "IC50", "setting": "[1]", "result": 0.0398, "unit": "µM"}, {"measurement": "Enzymatic activity pIC50 C.1.b", "setting": "[3]", "result": 8.4}, {"measurement": "solubility", "setting": "[2]", "result": 1.7, "unit": "mg/mL"}]}, {"smiles": "O=C(NO)c1cnc(N2CCC(CNCc3c[nH]c4ccc(Br)cc34)CC2)nc1", "note": "[Compound 15]", "values": [{"measurement": "IC50", "setting": "[1]", "result": 0.0316, "unit": "µM"}, {"measurement": "Enzymatic activity pIC50 C.1.b", "setting": "[3]", "result": 8.5}]}, {"smiles": "COc1ccc2[nH]cc(CNCC3CCN(c4ncc(C(=O)NO)cn4)CC3)c2c1", "note": "[Compound 16]", "values": [{"measurement": "IC50", "setting": "[1]", "result": 0.0794, "unit": "µM"}, {"measurement": "Enzymatic activity pIC50 C.1.b", "setting": "[3]", "result": 8.6}]}, {"smiles": "O=C(NO)c1cnc(N2CCC(CNCCc3c[nH]c4ccc(Cl)cc34)CC2)nc1", "note": "[Compound 17]", "values": [{"measurement": "IC50", "setting": "[1]", "result": 0.158, "unit": "µM"}, {"measurement": "Enzymatic activity pIC50 C.1.b", "setting": "[3]", "result": 7.8}]}, {"smiles": "Cn1cc(CNCC2CCN(c3ncc(C(=O)NO)cn3)CC2)c2cc([N+](=O)[O-])ccc21", "note": "[Compound 18]", "values": [{"measurement": "IC50", "setting": "[1]", "result": 0.01, "unit": "µM"}, {"measurement": "Enzymatic activity pIC50 C.1.b", "setting": "[3]", "result": 8.3}]}, {"smiles": "Cc1[nH]c2ccccc2c1CCNC1CCN(c2ncc(C(=O)NO)cn2)CC1", "note": "[Compound 29]", "values": [{"measurement": "IC50", "setting": "[1]", "result": 0.126, "unit": "µM"}, {"measurement": "Enzymatic activity pIC50 C.1.b", "setting": "[3]", "result": 7.9}]}, {"smiles": "Cn1cc(CNCC2CCN(c3ncc(C(=O)NO)cn3)CC2)c2cccc(F)c21", "note": "[Compound 30]", "values": [{"measurement": "IC50", "setting": "[1]", "result": 0.0316, "unit": "µM"}, {"measurement": "Enzymatic activity pIC50 C.1.b", "setting": "[3]", "result": 9.0}, {"measurement": "solubility", "setting": "[2]", "result": 2.1, "unit": "mg/mL"}]}, {"smiles": "CCCn1cc(CCNCC2CCN(c3ncc(C(=O)NO)cn3)CC2)c2ccccc21", "note": "[Compound 31]", "values": [{"measurement": "IC50", "setting": "[1]", "result": 0.0398, "unit": "µM"}, {"measurement": "Enzymatic activity pIC50 C.1.b", "setting": "[3]", "result": 8.2}]}, {"smiles": "Cn1cc(CNCC2CCN(c3ncc(C(=O)NO)cn3)CC2)c2cc(Cl)ccc21", "note": "[Compound 32]", "values": [{"measurement": "IC50", "setting": "[1]", "result": 0.00398, "unit": "µM"}, {"measurement": "Enzymatic activity pIC50 C.1.b", "setting": "[3]", "result": 8.0}, {"measurement": "solubility", "setting": "[2]", "result": 1.5, "unit": "mg/mL"}]}, {"smiles": "CCn1cc(CNCC2CCN(c3ncc(C(=O)NO)cn3)CC2)c2ccccc21", "note": "[Compound 34]", "values": [{"measurement": "IC50", "setting": "[1]", "result": 0.0316, "unit": "µM"}, {"measurement": "Enzymatic activity pIC50 C.1.b", "setting": "[3]", "result": 8.4}]}, {"smiles": "Cc1[nH]c2ccccc2c1CNCC1CCN(c2ncc(C(=O)NO)cn2)CC1", "note": "[Compound 35]", "values": [{"measurement": "IC50", "setting": "[1]", "result": 0.2, "unit": "µM"}, {"measurement": "Enzymatic activity pIC50 C.1.b", "setting": "[3]", "result": 8.2}]}, {"smiles": "Cc1cccc2c(CNCC3CCN(c4ncc(C(=O)NO)cn4)CC3)cn(C)c12", "note": "[Compound 37]", "values": [{"measurement": "IC50", "setting": "[1]", "result": 0.0316, "unit": "µM"}, {"measurement": "Enzymatic activity pIC50 C.1.b", "setting": "[3]", "result": 8.6}]}, {"smiles": "Cc1cccc2c1c(CNCC1CCN(c3ncc(C(=O)NO)cn3)CC1)cn2C", "note": "[Compound 38]", "values": [{"measurement": "IC50", "setting": "[1]", "result": 0.0316, "unit": "µM"}, {"measurement": "Enzymatic activity pIC50 C.1.b", "setting": "[3]", "result": ">9.0"}]}, {"smiles": "CCC(CC)n1cc(CNCC2CCN(c3ncc(C(=O)NO)cn3)CC2)c2ccccc21", "note": "[Compound 40]", "values": [{"measurement": "IC50", "setting": "[1]", "result": 0.0316, "unit": "µM"}, {"measurement": "Enzymatic activity pIC50 C.1.b", "setting": "[3]", "result": 8.5}]}, {"smiles": "CCCn1cc(CNCC2CCN(c3ncc(C(=O)NO)cn3)CC2)c2ccc(Cl)cc21", "note": "[Compound 41]", "values": [{"measurement": "IC50", "setting": "[1]", "result": 1.58, "unit": "µM"}, {"measurement": "Enzymatic activity pIC50 C.1.b", "setting": "[3]", "result": 8.4}]}, {"smiles": "Cc1ccc2c(c1)c(CNCC1CCN(c3ncc(C(=O)NO)cn3)CC1)c(C)n2C", "note": "[Compound 42]", "values": [{"measurement": "IC50", "setting": "[1]", "result": 0.0316, "unit": "µM"}, {"measurement": "Enzymatic activity pIC50 C.1.b", "setting": "[3]", "result": 8.3}]}]}
